Source: patent US11571483B2, “E2F reporter melanoma cells” (THOMAS JEFFERSON UNIVERSITY, priority 2015, dated 2023)

Tests used:
[1] = tested on: 1205Lu xenografts; test: 1205Lu reporter xenograft model, tumor volume / response; type: in vivo, immunodeficient nude mice
Excerpt: (§1) FIG. 7 A depicts the E2F reporter system for measuring the efficacy of CDK4/6 and MEK inhibitors in vivo. Firefly luciferase is expressed under the control of E2F response elements. […] CR=complete response. FIG. 7D depicts analysis of E2F reporter activity normalized to tdTomato fluorescent protein activity in 1205Lu xenografts. […] CR=complete response. FIG. 7G depicts representative images of 1205Lu xenografts taken from mice fed vehicle, MEK inhibitor, CDK4/6 inhibitor and combo-laced chow analyzed for Ki67. FIG. 7H depicts quantitation of Ki67 positive cells (% of total cells) taken from mice fed vehicle (n=2), MEK inhibitor (n=4), CDK4/6 inhibitor (n=4) and combo laced chow (n=4).
(§2) Indeed, in a performed xenograft mouse model, 1205Lu reporter cells were intradermally injected into immunodeficient nude mice.
(§3) Mice were retreated with combination regimen at day 67. FIG. 9B depicts modulation of E2F activity in combination treated mice following drug removal and retreatment. […] FIG. 9C depicts RPPA analysis on resistant tumors.

[2] = tested on: E2F; test: E2F reporter activity in 1205Lu xenografts (luciferase normalized to tdTomato); type: in vivo, immunodeficient nude mice; conditions: drug-laced chow
Excerpt: as §1, §2, §3

[3] = tested on: E2F; test: E2F reporter assay in vitro (firefly luciferase normalized to actin); type: cell-based, human; conditions: 1205Lu reporter cells; palbociclib (0.5 μM), 48 hours
Excerpt: CR=complete response. […] CR=complete response.
Tumor cells were also transduced with tdTomato fluorescent protein to selectively monitor tumor growth. […] In FIG. 8 1205Lu reporter cells were transfected with silencing RNA to control sequence, CDK4, CDK6 or both CDK4 and CDK6. […] Firefly luciferase activity was normalized to actin levels in each sample.

Structure (SMILES)	complete regressions ([1]; MEK inhibitor chow (mouse #6))	tumor regrowth on treatment ([1]; by treatment day 44)	tumor volume, initial response ([1]; drug-laced chow)	E2F reporter activity in tumors on treatment [2]	reduction in firefly luciferase activity normalized to actin levels [3]
O=C(NOC[C@H](O)CO)c1ccc(F)c(F)c1Nc1ccc(I)cc1F [PD0325901]	one complete regression	dramatic tumor regrowth	initially maintained tumor volumes at a static level	strong E2F reactivation	–
CC(=O)c1c(C)c2cnc(Nc3ccc(N4CCNCC4)cn3)nc2n(C2CCCC2)c1=O [palbociclib]	–	–	–	–	60%
